Measured values reported in patent US20230279001A1, “IMIDAZO[1,2-A]PYRIDINE COMPOUNDS FOR THE TREATMENT OF AUTOIMMUNE DISEASE” (Hoffmann-La Roche Inc., priority 2020, published 2023).

Key:
[1] = target: human TLR8 (Homo sapiens (Human), UniProt Q9NR97); experiment: HEK293-Blue-hTLR-8 cells assay; assay type: cell-based; settings: HEK293-Blue-hTLR8 cells, R848 stimulation, 20 hrs, SEAP reporter; read-out: HEK/hTLR8 IC50
Text: A stable HEK293-Blue-hTLR-8 cell line was purchased from InvivoGen (Cat. #: hkb-htlr8, San Diego, Calif., USA). These cells were originally designed for studying the stimulation of human TLR8 by monitoring the activation of NF-κB. A SEAP (secreted embryonic alkaline phosphatase) reporter gene was placed under the control of the IFN-β minimal promoter fused to five NF-κB and AP-1-binding sites. The SEAP was induced by activating NF-κB and AP-1 via stimulating HEK-Blue hTLR8 cells with TLR8 ligands. Therefore the reporter expression was declined by TLR8 antagonist under the stimulation of a ligand, such as R848, for incubation of 20 hrs. The cell culture supernatant SEAP reporter activity was determined using QUANTI-Blue™ kit (Cat. #: rep-gb1, Invivogen, San Diego, Ca, USA) at a wavelength of 640 nm, a detection medium that turns purple or blue in the presence of alkaline phosphatase.
HEK293-Blue-hTLR8 cells were incubated at a density of 250,000˜450,000 cells/mL in a volume of 170 μL in a 96-well plate in Dulbecco's Modified Eagle's medium (DMEM) containing 4.5 g/L glucose, 50 U/mL penicillin, […], […], 2 mM L-glutamine, 10% (v/v) heat-inactivated fetal bovine serum with addition of 20 μL test compound in a serial dilution in the presence of final DMSO at 1% and 10 μL of 60 uM R848 in above DMEM, perform incubation under 37° C. in a CO2 incubator for 20 hrs. Then 20 μL of the supernatant from each well was incubated with 180 μL Quanti-blue substrate solution at 37° C. for 2 hrs and the absorbance was read at 620655 nm using a spectrophotometer. The signaling pathway that TLR8 activation leads to downstream NF-κB activation has been widely accepted, and therefore similar reporter assay was modified for evaluating TLR8 antagonist.

[2] = Parallel Artificial Membrane Permeability Assay (PAMPA); assay type: in vitro ADME; settings: for Membrane Retention / Papp at 4 h: PAMPA, pH 7.40, 4 hours; for Papp at 4 h: pH 7.4, room temperature, read-out: PAMPA Pe; for PAMPA category: classified by Pe and membrane retention
Method: PAMPA (Parallel Artificial Membrane Permeability Assay) is a first-line permeability screen for drug candidates. This assay mimics the transcellular absorption conditions using an artificial phospholipid membrane and generates a permeability value that can be used for compound ranking and optimization as well as input parameters for in silico models to predict intestinal absorption.
Permeation experiments are carried out in hydrophobic PVDF 96-well microtiter filter plates (MultiScreen Filter Plate, Millipore, #MAIPN4550). Each well is coated with PVDF membrane, which is prepared with 5 μL Dodecane (Sigma, D221104) that contains 1% lecithin (Sigma, P3556-1G).
The typical PAMPA experimental protocol is as follows: The donor plate is placed on a Teflon acceptor plate that has been pre-filled with […] of 100 mM PBS buffer (2.6 g KH2PO4 and 18.5 g K2HPO4·3H2O are dissolved in about 1000 mL of ultra-pure water and mixed thoroughly. The pH is adjusted to 7.40±0.05, using either 1 M sodium hydroxide or 1M hydrochloric acid) containing 5% DMSO. The filter on the bottom of each acceptor well is filled with 300 μL of 100 mM PBS buffer (2.6 g KH2PO4 and 18.5 g K2HPO4·3H2O are dissolved in about 1000 mL of ultra-pure water, mixed thoroughly. The pH was adjusted to 7.40±0.05, using either 1 M sodium hydroxide or 1M hydrochloric acid). The resulting sandwich is incubated at room temperature under constant shaking (300 rpm) for 4 hours. The sandwich is then disassembled. Before incubation, spike 20 μL dosing solution and mix with 250 μL PBS and 130 μL quench solution (acetonitrile) as TO sample. After incubation, collect 270 μL solutions from acceptor chamber, followed by the addition of 130 μL acetonitrile. Collect 20 μL solution from donor chamber and add 250 μL PBS and 130 μL acetonitrile. The concentration of compound in all samples are determined by LC-MS/MS and the equations for determining the permeability (Pe, 10^−6 cm/s) are as follows.
VD is the volume of the donor well; VR is the volume of the acceptor well; Area is the active surface area of membrane; Time is the incubation time (14,400 s in this assay); CR and CD are the concentrations of compound in acceptor and donor solutions, respectively, at the completion of the assay; C0 is the concentration of compound in donor solution before incubation.
The main readout of the PAMPA assay is the permeability value Pe expressed in 10^−6 cm/s. Secondary readouts determined are the amounts of compound in the donor and acceptor compartments as well as compound retention in the membrane. Depending on the permeation rate and the membrane retention, compounds are classified as “low” (Pe<0.2 and membrane retention<20%) or “medium & high” (Pe>=0.2; or Pe<0.2 and membrane retention>=20%). Each sample is measured in triplicate; the standard deviation is determined for the permeation constant Pe.

Chain of human TLR8 (Q9NR97 27-1041): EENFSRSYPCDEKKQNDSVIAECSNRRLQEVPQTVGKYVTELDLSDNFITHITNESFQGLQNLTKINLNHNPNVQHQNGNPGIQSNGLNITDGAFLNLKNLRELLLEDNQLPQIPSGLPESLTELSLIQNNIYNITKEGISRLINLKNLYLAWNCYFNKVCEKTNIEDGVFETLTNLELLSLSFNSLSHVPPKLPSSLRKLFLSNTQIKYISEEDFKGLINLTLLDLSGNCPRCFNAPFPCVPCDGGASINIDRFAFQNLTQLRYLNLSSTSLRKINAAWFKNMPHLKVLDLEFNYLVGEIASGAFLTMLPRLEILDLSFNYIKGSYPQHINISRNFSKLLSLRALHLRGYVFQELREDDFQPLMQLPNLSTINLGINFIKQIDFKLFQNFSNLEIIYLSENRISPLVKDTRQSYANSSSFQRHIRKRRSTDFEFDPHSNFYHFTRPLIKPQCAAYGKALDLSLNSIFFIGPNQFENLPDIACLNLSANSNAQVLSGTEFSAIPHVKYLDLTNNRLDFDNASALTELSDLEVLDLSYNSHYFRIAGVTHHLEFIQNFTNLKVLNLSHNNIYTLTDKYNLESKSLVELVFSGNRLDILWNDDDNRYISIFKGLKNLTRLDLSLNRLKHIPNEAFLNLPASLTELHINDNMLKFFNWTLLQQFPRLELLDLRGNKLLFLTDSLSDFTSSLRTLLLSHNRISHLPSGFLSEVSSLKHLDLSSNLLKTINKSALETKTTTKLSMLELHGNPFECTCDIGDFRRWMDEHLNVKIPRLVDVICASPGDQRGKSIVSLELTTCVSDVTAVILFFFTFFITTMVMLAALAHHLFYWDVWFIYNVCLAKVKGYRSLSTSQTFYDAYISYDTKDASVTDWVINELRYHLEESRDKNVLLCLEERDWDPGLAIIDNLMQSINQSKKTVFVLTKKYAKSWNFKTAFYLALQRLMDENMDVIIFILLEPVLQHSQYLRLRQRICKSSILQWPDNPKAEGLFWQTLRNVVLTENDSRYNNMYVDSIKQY

| SMILES | IC50 [1] [nM] | Membrane Retention [2] [%] | Papp at 4 h [2] [×10⁻⁶ cm/s] | PAMPA category [2] |
| --- | --- | --- | --- | --- |
| CCc1cc(-c2cc(C)c3nccn3c2)cnc1N1CCC2(CCNCC2)CC1 [Example 22, 3-[3-ethyl-5-(8-methylimidazo[1,2-a]pyridin-6-yl)-2-pyridyl]-3,9-diazaspiro[5.5]undecane] | 40 | 26.45 | 0.5 | medium & high (“medium & high” (Pe>=0.2; or Pe<0.2 and membrane retention>=20%)) |
| CCc1nc(N2CCC(C)(N)CC2)ccc1-c1cc(C)c2nc(C)cn2c1 [Example 20, 1-[5-(2,8-dimethylimidazo[1,2-a]pyridin-6-yl)-6-ethyl-2-pyridyl]-4-methyl-piperidin-4-amine] | 41.8 |  |  |  |
| Cc1c(-c2ccc(N3CCC(N4CCNCC4)CC3)nc2C(C)C)cn2ccnc2c1C [Example 7, 6-[2-isopropyl-6-(4-piperazin-1-yl-1-piperidyl)-3-pyridyl]-7,8-dimethyl-imidazo[1,2-a]pyridine] | 8.6 | 20.4 | 1.2 | medium & high (“medium & high” (Pe>=0.2; or Pe<0.2 and membrane retention>=20%)) |
| Cc1cc(-c2ccc(N3CCC(N4CCNCC4)CC3)nc2C(C)C)cn2ccnc12 [Example 2, 6-[2-isopropyl-6-(4-piperazin-1-yl-1-piperidyl)-3-pyridyl]-8-methyl-imidazo[1,2-a]pyridine] | 1.3 | 22.73 | 0.87 | medium & high (“medium & high” (Pe>=0.2; or Pe<0.2 and membrane retention>=20%)) |
| Cc1cn2cc(-c3ccc(N4CCN5CCNCC5C4)nc3C(C)C)cc(C)c2n1 (centres unmarked) [Example 8, 2-[5-(2,8-dimethylimidazo[1,2-a]pyridin-6-yl)-6-isopropyl-2-pyridyl]-1,3,4,6,7,8,9,9a-octahydropyrazino[1,2-a]pyrazine] | 2.3 | 34.49 | 0.85 | medium & high (“medium & high” (Pe>=0.2; or Pe<0.2 and membrane retention>=20%)) |
| COc1nc(N2CCC(N3CCNCC3)CC2)ccc1-c1cc(C)c2nccn2c1 [Example 25, 6-[2-methoxy-6-(4-piperazin-1-yl-1-piperidyl)-3-pyridyl]-8-methyl-imidazo[1,2-a]pyridine] | 11.2 |  |  |  |
| CCc1nc(N2CCC(N3C[C@@H](N)[C@H](OC)C3)CC2)ccc1-c1cc(C)c2nccn2c1 [Example 15, (3R,4R)-1-[1-[6-ethyl-5-(8-methylimidazo[1,2-a]pyridin-6-yl)-2-pyridyl]-4-piperidyl]-4-methoxy-pyrrolidin-3-amine] | 0.3 |  |  |  |
| Cc1cn2cc(-c3ccc(N4CCC(N)CC4)nc3C(C)C)cc(C)c2n1 [Example 4, 1-[5-(2,8-dimethylimidazo[1,2-a]pyridin-6-yl)-6-isopropyl-2-pyridyl]piperidin-4-amine] | 2.9 | 17.52 | 1.2 | medium & high (“medium & high” (Pe>=0.2; or Pe<0.2 and membrane retention>=20%)) |
| CCc1nc(N2CCC(N3CCNCC3)CC2)ccc1-c1cc(C)c2nc(C)cn2c1 [Example 21, 6-[2-ethyl-6-(4-piperazin-1-yl-1-piperidyl)-3-pyridyl]-2,8-dimethyl-imidazo[1,2-a]pyridine] | 3.6 | 28 | 0.73 | medium & high (“medium & high” (Pe>=0.2; or Pe<0.2 and membrane retention>=20%)) |
| Cc1cn2cc(-c3ccc(N4CCNC[C@H]4CO)nc3C(C)C)cc(C)c2n1 [Example 5, [(2S)-1-[5-(2,8-dimethylimidazo[1,2-a]pyridin-6-yl)-6-isopropyl-2-pyridyl]piperazin-2-yl]methanol] | 30.4 | 17.82 | 2.1 | medium & high (“medium & high” (Pe>=0.2; or Pe<0.2 and membrane retention>=20%)) |
| CCc1nc(N2CCC(N3C[C@@H](N)[C@H](OC)C3)CC2)ccc1-c1cc(C)c2nc(C)cn2c1 [Example 17, (3R,4R)-1-[1-[5-(2,8-dimethylimidazo[1,2-a]pyridin-6-yl)-6-ethyl-2-pyridyl]-4-piperidyl]-4-methoxy-pyrrolidin-3-amine] | 1 |  |  |  |
| Cc1cc(-c2cc(C)c3nccn3c2)cnc1N1CCC(N2CCN(C)CC2)CC1 [Example 9, 8-methyl-6-[5-methyl-6-[4-(4-methylpiperazin-1-yl)-1-piperidyl]-3-pyridyl]imidazo[1,2-a]pyridine] | 10.7 | 49 | 0.88 | medium & high (“medium & high” (Pe>=0.2; or Pe<0.2 and membrane retention>=20%)) |
| CCc1nc(N2CCC(N3CC4(CNCCO4)C3)CC2)ccc1-c1cc(C)c2nccn2c1 [Example 14, 2-[1-[6-ethyl-5-(8-methylimidazo[1,2-a]pyridin-6-yl)-2-pyridyl]-4-piperidyl]-5-oxa-2,8-diazaspiro[3.5]nonane] | 0.4 |  |  |  |
| Cc1cc(-c2ccc(N3CCC(N4CCNCC4)CC3)nc2C(F)F)cn2ccnc12 [Example 10, 6-[2-(difluoromethyl)-6-(4-piperazin-1-yl-1-piperidyl)-3-pyridyl]-8-methyl-imidazo[1,2-a]pyridine] | 2.8 | 17.7 | 0.81 | medium & high (“medium & high” (Pe>=0.2; or Pe<0.2 and membrane retention>=20%)) |
| Cc1cn2cc(-c3ccc(N4CCC(N5CCNCC5)CC4)nc3C(C)C)cc(C)c2n1 [Example 3, 6-[2-isopropyl-6-(4-piperazin-1-yl-1-piperidyl)-3-pyridyl]-2,8-dimethyl-imidazo[1,2-a]pyridine] | 1.2 | 20.3 | 0.8 | medium & high (“medium & high” (Pe>=0.2; or Pe<0.2 and membrane retention>=20%)) |
| Cc1cn2cc(-c3ccc(N4CCC(N5CC(C)(N)C5)CC4)nc3C(F)F)cc(C)c2n1 [Example 12, 1-[1-[6-(difluoromethyl)-5-(2,8-dimethylimidazo[1,2-a]pyridin-6-yl)-2-pyridyl]-4-piperidyl]-3-methyl-azetidin-3-amine] | 1.1 | 7.03 | 1 | medium & high (“medium & high” (Pe>=0.2; or Pe<0.2 and membrane retention>=20%)) |
| Cc1cn2cc(-c3ccc(N4CCC(N5CCNCC5)CC4)nc3C(F)F)cc(C)c2n1 [Example 11, 6-[2-(difluoromethyl)-6-(4-piperazin-1-yl-1-piperidyl)-3-pyridyl]-2,8-dimethyl-imidazo[1,2-a]pyridine] | 16.8 | 9.47 | 0.84 | medium & high (“medium & high” (Pe>=0.2; or Pe<0.2 and membrane retention>=20%)) |
